US20240374602A1, “METHODS FOR TREATING NEUROGENERATIVE DISEASES” (PTC THERAPEUTICS, INC., priority 2021, published 2024)

These compounds were tested on MAPT 3R mRNA (assay: RT-qPCR Assay to Quantify MAPT 3R mRNA in Cells). Details: cells incubated with compound 24 h; 7-point concentration curve; in house MAPT minigene 3R primer/probe with GAPDH assay; EC2x interpolated from dose response curve.
Type: cell-based
Parameters: key to EC2X: An EC2x value≥3000 nM is indicated by “inactive.”; An EC2x value between >1500 nM and ≤3000 nM is indicated by one star (*); An EC2x value between >1000 nM and ≤1500 nM is indicated by two stars (**); An EC2x value between >500 nM and ≤1000 nM is indicated by three stars (***); An EC2x value between >50 nM and ≤500 nM is indicated by four stars (****); An EC2x value≤50 nM is indicated by five stars (*****)
Experimental: RT-qPCR Assay to Quantify MAPT 3R mRNA in Cells
Test compounds were serially diluted 3.16-fold in 100% DMSO to generate a 7-point concentration curve. Aliquots of 0.5 μL of diluted compounds were transferred to a 96-well flat bottom plate by a liquid handler. An aliquot of 0.5 μL DMSO was also transferred to separate wells and used as controls. Duplicate samples were set up for each compound concentration and for the DMSO control.
Cells were thawed and incubated in cell culture media (DMEM, 1 FBS, and No antibiotic cocktail) for 72 h. Cells were trypsinized, counted, and re-suspended to a concentration of 200,000 cells/mL in cell culture media. A 100 μL aliquot of the cell suspensions were plated at 20,000 cells per well in the compound containing 96 well microtiter plate and incubated for in a cell culture incubator (37° C., […], 100% relative humidity).
After 24 h, media was aspirated from the cells and 20 μL of the RCL2 lysis buffer (10 mM Tris-HCL pH 7.4, 150 mM NaCl, […]) was added to each well and incubated at RT for 1 mi. Chilled nuclease free water (140 μL per well) was added and the plates were immediately transferred on ice. After 1 min on ice, plates were frozen at −80° C. overnight.
Preparation of RT-PCR Reaction Mixture:
An aliquot of 4 μL/well of the cell lysates was transferred using the liquid handler to the Armadillo 384-Well PCR plate containing 6 μL/well of the RT-qPCR reaction mixture that was prepared as detailed above. The plates were then sealed with MicroAmp™ Optical Adhesive Film followed by spinning down for 1 min and placed in the CFX384 thermocycler (BioRad).
The RT-qPCR was carried out at the following temperatures for the indicated time: • Step 1: 48° C. (30 min) • Step 2: 95° C. (10 min) • Step 3: 95° C. (15 sec) • Step 4: 60° C. (1 min); then, repeated Steps 3 and 4 for a total of 40 cycles.
The percent exon 4 skipping was calculated for each dose of compound treatment using Equations 1 and 2.
Data were fit to a dose response curve and the EC2x was interpolated using XLfit® statistical and curve fitting package.
An EC2x value between >1000 nM and ≤1500 nM is indicated by two stars (**). An EC2x value between >500 nM and ≤1000 nM is indicated by three stars (***). An EC2x value between >50 nM and ≤500 nM is indicated by four stars (****). An EC2x value≤50 nM is indicated by five stars (*****).
With CC(C)[C@H](N)Cc1cc2nc(Cl)nc(NCc3ccco3)c2s1 [Cpd 5, 6-[(2R)-2-amino-3-methylbutyl]-2-chloro-N-[(furan-2-yl)methyl]thieno[3,2-d]pyrimidin-4-amine] the EC (2-fold) was 0.05 to 0.5 µM. In the case of Cc1c(C[C@H](C)N)sc2c(NCc3ccco3)nc(Cl)nc12 [Cpd 12, 6-[(2S)-2-aminopropyl]-2-chloro-N-[(furan-2-yl)methyl]-7-methylthieno[3,2-d]pyrimidin-4-amine], the EC (2-fold) is reported as no more than 0.05 µM. Compound Cc1nc(NCc2ccco2)c2sc(C[C@H](C)N)c(C)c2n1 [Cpd 15, 6-[(2S)-2-aminopropyl]-N-[(furan-2-yl)methyl]-2,7-dimethylthieno[3,2-d]pyrimidin-4-amine] has an EC (2-fold) of 0.05 to 0.5 µM. Cc1csc2c(NCc3ccncc3)nc(Cl)nc12 [Cpd 23, 2-chloro-7-methyl-N-[(pyridin-4-yl)methyl]thieno[3,2-d]pyrimidin-4-amine] gave an EC (2-fold) of 0.05 to 0.5 µM. With Cc1ccc(CNc2nc(Cl)nc3c(C)c(C[C@H](C)N)sc23)o1 [Cpd 24, 6-[(2S)-2-aminopropyl]-2-chloro-7-methyl-N-[(5-methylfuran-2-yl)methyl]thieno[3,2-d]pyrimidin-4-amine] the EC (2-fold) was 0.05 to 0.5 µM. In the case of Cc1c(C[C@H](C)N)sc2c(NCc3cccs3)nc(Cl)nc12 [Cpd 28, 6-[(2S)-2-aminopropyl]-2-chloro-7-methyl-N-[(thiophen-2-yl)methyl]thieno[3,2-d]pyrimidin-4-amine], the EC (2-fold) is reported as no more than 0.05 µM. Work on Cc1c(C[C@H](C)N)sc2c(NCc3nccs3)nc(Cl)nc12 [Cpd 29, 6-[(2S)-2-aminopropyl]-2-chloro-7-methyl-N-[(1,3-thiazol-2-yl)methyl]thieno[3,2-d]pyrimidin-4-amine] yielded an EC (2-fold) of no more than 0.05 µM. Compound Cc1cnc(CNc2nc(Cl)nc3c(C)c(C[C@H](C)N)sc23)s1 [Cpd 31, 6-[(2S)-2-aminopropyl]-2-chloro-7-methyl-N-[(5-methyl-1,3-thiazol-2-yl)methyl]thieno[3,2-d]pyrimidin-4-amine] has an EC (2-fold) of 1.5 to 3 µM. Work on Cc1c(C[C@H](C)N)sc2c(NCc3ccc(F)s3)nc(Cl)nc12 [Cpd 33, 6-[(2S)-2-aminopropyl]-2-chloro-N-[(5-fluorothiophen-2-yl)methyl]-7-methylthieno[3,2-d]pyrimidin-4-amine] yielded an EC (2-fold) of 0.05 to 0.5 µM. With Cc1c(C[C@H](C)N)sc2c(NCc3ccco3)nc(Br)nc12 [Cpd 38, 6-[(2S)-2-aminopropyl]-2-bromo-N-[(furan-2-yl)methyl]-7-methylthieno[3,2-d]pyrimidin-4-amine] the EC (2-fold) was 0.5 to 1 µM. Cc1c(C[C@H](C)N)sc2c(NCc3ccno3)nc(Cl)nc12 [Cpd 39, 6-[(2S)-2-aminopropyl]-2-chloro-7-methyl-N-[(1,2-oxazol-5-yl)methyl]thieno[3,2-d]pyrimidin-4-amine] was tested, and the EC (2-fold) was 0.05 to 0.5 µM. With Cc1c(C[C@@H](N)CCF)sc2c(NCc3ccco3)nc(Cl)nc12 [Cpd 51, 6-[(2S)-2-amino-4-fluorobutyl]-2-chloro-N-[(furan-2-yl)methyl]-7-methylthieno[3,2-d]pyrimidin-4-amine] the EC (2-fold) was no more than 0.05 µM. With Cc1c(C[C@@H](N)CO)sc2c(NCc3cccs3)nc(Cl)nc12 [Cpd 56, (2R)-2-amino-3-(2-chloro-7-methyl-4-{[(thiophen-2-yl)methyl]amino}thieno[3,2-d]pyrimidin-6-yl)propan-1-ol] the EC (2-fold) was no more than 0.05 µM. Cc1c(C[C@H](C)N)sc2c(NCc3ncccc3F)nc(Cl)nc12 [Cpd 59, 6-[(2S)-2-aminopropyl]-2-chloro-N-[(3-fluoropyridin-2-yl)methyl]-7-methylthieno[3,2-d]pyrimidin-4-amine] gave an EC (2-fold) of 0.5 to 1 µM. Cc1c(C[C@H](C)N)sc2c(NCc3cccnc3F)nc(Cl)nc12 [Cpd 60, 6-[(2S)-2-aminopropyl]-2-chloro-N-[(2-fluoropyridin-3-yl)methyl]-7-methylthieno[3,2-d]pyrimidin-4-amine] gave an EC (2-fold) of 1.5 to 3 µM. CC[C@H](N)Cc1sc2c(NCc3ccns3)nc(Cl)nc2c1C [Cpd 62, 6-[(2S)-2-aminobutyl]-2-chloro-7-methyl-N-[(1,2-thiazol-5-yl)methyl]thieno[3,2-d]pyrimidin-4-amine] gave an EC (2-fold) of 0.05 to 0.5 µM. In the case of Cc1c(C[C@H](C)N)sc2c(NCc3c(F)cncc3F)nc(Cl)nc12 [Cpd 64, 6-[(2S)-2-aminopropyl]-2-chloro-N-[(3,5-difluoropyridin-4-yl)methyl]-7-methylthieno[3,2-d]pyrimidin-4-amine], the EC2X is reported as “inactive”. Work on Cc1c(C[C@@H](C)CN)sc2c(NCc3ccco3)nc(Cl)nc12 [Cpd 72, 6-[(2R)-3-amino-2-methylpropyl]-2-chloro-N-[(furan-2-yl)methyl]-7-methylthieno[3,2-d]pyrimidin-4-amine] yielded an EC (2-fold) of 1.5 to 3 µM. Cc1c(C[C@H](C)N)sc2c(NCc3cncs3)nc(Cl)nc12 [Cpd 74, 6-[(2S)-2-aminopropyl]-2-chloro-7-methyl-N-[(1,3-thiazol-5-yl)methyl]thieno[3,2-d]pyrimidin-4-amine] gave an EC (2-fold) of no more than 0.05 µM. Compound Cc1c(C[C@H](C)N)sc2c(NCc3cnco3)nc(Cl)nc12 [Cpd 75, 6-[(2S)-2-aminopropyl]-2-chloro-7-methyl-N-[(1,3-oxazol-5-yl)methyl]thieno[3,2-d]pyrimidin-4-amine] has an EC (2-fold) of 0.5 to 1 µM. CCc1c(C[C@H](C)N)sc2c(NCc3ccco3)nc(Cl)nc12 [Cpd 77, 6-[(2S)-2-aminopropyl]-2-chloro-7-ethyl-N-[(furan-2-yl)methyl]thieno[3,2-d]pyrimidin-4-amine] gave an EC (2-fold) of 0.05 to 0.5 µM. With Cc1c(C[C@H](C)NC2CCC2)sc2c(NCc3ccco3)nc(Cl)nc12 [Cpd 78, 2-chloro-6-[(2S)-2-(cyclobutylamino)propyl]-N-[(furan-2-yl)methyl]-7-methylthieno[3,2-d]pyrimidin-4-amine] the EC (2-fold) was 1.5 to 3 µM. In the case of C[C@H](N)Cc1sc2c(NCc3cccs3)nc(Cl)nc2c1Br [Cpd 82, 6-[(2S)-2-aminopropyl]-7-bromo-2-chloro-N-[(thiophen-2-yl)methyl]thieno[3,2-d]pyrimidin-4-amine], the EC (2-fold) is reported as no more than 0.05 µM. Work on C[C@H](N)Cc1sc2c(NCc3cccs3)nc(Cl)nc2c1C1CC1 [Cpd 86, 6-[(2S)-2-aminopropyl]-2-chloro-7-cyclopropyl-N-[(thiophen-2-yl)methyl]thieno[3,2-d]pyrimidin-4-amine] yielded an EC (2-fold) of 0.05 to 0.5 µM. With Cc1c(C[C@H](C)N)sc2c(NCc3sccc3F)nc(Cl)nc12 [Cpd 90, 6-[(2S)-2-aminopropyl]-2-chloro-N-[(3-fluorothiophen-2-yl)methyl]-7-methylthieno[3,2-d]pyrimidin-4-amine] the EC (2-fold) was 0.05 to 0.5 µM. For Cc1c(C[C@H](C)N)sc2c(NCc3nc(F)cs3)nc(Cl)nc12 [Cpd 92, 6-[(2S)-2-aminopropyl]-2-chloro-N-[(4-fluoro-1,3-thiazol-2-yl)methyl]-7-methylthieno[3,2-d]pyrimidin-4-amine], the EC (2-fold) was 0.05 to 0.5 µM. Compound Cc1c(C[C@H](C)N)sc2c(NCc3ncc(F)s3)nc(Cl)nc12 [Cpd 93, 6-[(2S)-2-aminopropyl]-2-chloro-N-[(5-fluoro-1,3-thiazol-2-yl)methyl]-7-methylthieno[3,2-d]pyrimidin-4-amine] has an EC (2-fold) of 0.05 to 0.5 µM. Work on Cc1c(C[C@@H](N)CCO)sc2c(NCc3ccco3)nc(Cl)nc12 [Cpd 97, (3S)-3-amino-4-(2-chloro-4-{[(furan-2-yl)methyl]amino}-7-methylthieno[3,2-d]pyrimidin-6-yl)butan-1-ol] yielded an EC (2-fold) of no more than 0.05 µM.
